Experimental data reported in paper PMC10084758, “Crystal Structure and Biochemical Analysis of a Cytochrome P450 Steroid Hydroxylase (BaCYP106A6) from Bacillus Species” (Journal of Microbiology and Biotechnology, 2022).

Molecular target: T1, BaCYP106A6 (Bacillus sp. (in: firmicutes), UniProt Z9J180VW61)
T1 construct: His-tagged, pET28a(+), E. coli C41(DE3); Co2+ resin; monomer; N-terminus MLKEVI and C-terminus NVYK deduced from printed primers; heme-ligating Cys356; unique Arg295
T1 sequence (Z9J180VW61 1-410): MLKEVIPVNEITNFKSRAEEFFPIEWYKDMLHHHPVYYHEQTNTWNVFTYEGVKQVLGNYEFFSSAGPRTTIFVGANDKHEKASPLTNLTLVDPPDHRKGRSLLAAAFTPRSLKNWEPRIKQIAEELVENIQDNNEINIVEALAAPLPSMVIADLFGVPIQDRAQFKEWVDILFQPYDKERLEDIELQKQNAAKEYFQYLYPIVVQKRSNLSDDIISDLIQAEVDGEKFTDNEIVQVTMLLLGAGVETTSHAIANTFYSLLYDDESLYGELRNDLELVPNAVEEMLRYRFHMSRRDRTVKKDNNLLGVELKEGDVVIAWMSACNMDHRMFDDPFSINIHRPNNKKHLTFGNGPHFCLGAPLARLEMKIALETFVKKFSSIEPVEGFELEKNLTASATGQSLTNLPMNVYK
Experiment: UV-visible type I difference spectral titration
Type: binding

Row | Compound | Kd [µM]
1 | C[C@]12CCC(=O)C=C1CC[C@@H]1[C@@H]2CC[C@]2(C)C(=O)CC[C@@H]12 [androstenedione] | 36.6
2 | CC(=O)[C@H]1CC[C@H]2[C@@H]3CCC4=CC(=O)CC[C@]4(C)[C@H]3CC[C@]12C [progesterone] | 38.4
